Results on one compound are retold here after patent publication US20160279187A1, “CALPAIN INHIBITORS FOR IBD AND COLORECTAL CANCER TREATMENT” (UNIVERSITY OF HAWAII, priority 2013, published 2016).

Where a SMILES comes first, the peptide text is derived from it. The star is where a group is joined. Cbz = O=C(OCc1ccccc1)*; CH2F = FC*

Assay [1] has as its target T1, m-calpain (Homo sapiens, UniProt P17655).
T1 sequence (P17655 1-700): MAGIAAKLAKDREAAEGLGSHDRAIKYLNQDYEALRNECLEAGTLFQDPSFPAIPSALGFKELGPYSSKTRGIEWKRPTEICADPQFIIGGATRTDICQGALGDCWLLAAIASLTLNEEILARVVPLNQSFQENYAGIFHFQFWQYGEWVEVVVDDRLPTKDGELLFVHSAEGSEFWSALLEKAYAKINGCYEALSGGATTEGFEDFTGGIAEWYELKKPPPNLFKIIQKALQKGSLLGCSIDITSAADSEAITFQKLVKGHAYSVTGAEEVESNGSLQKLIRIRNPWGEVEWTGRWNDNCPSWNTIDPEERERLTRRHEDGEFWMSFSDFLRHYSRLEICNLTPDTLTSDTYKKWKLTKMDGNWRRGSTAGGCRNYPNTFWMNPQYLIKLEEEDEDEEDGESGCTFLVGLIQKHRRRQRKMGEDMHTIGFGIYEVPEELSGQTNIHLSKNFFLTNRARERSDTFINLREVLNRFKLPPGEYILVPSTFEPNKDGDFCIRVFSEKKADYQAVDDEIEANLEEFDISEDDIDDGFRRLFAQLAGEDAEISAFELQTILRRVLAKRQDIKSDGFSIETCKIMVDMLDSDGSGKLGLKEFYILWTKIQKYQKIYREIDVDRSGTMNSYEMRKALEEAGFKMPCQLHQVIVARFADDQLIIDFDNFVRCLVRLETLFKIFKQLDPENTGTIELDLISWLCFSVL
T1 sequence (P04632 1-268 partner): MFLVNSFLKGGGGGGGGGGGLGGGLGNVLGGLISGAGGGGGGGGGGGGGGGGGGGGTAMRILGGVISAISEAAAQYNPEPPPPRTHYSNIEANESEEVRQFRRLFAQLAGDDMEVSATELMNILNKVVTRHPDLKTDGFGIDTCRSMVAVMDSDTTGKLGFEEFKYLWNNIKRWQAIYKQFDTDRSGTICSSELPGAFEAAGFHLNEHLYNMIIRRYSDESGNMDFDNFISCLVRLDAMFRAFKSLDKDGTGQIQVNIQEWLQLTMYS
Kind of assay: irreversible inhibition of m-calpain, k2 rate constant. The class given is biochemical. Conditions: m-calpain / cathespin L, 28,900/680,000. An excerpt: In some aspects, the m-calpain selective inhibitor can be an irreversible inhibitor of m-calpain. The inhibition is made […] by the nucleophilic attack of the active cysteine in m-calpain to the electrophilic moeity of the m-calpain selective inhibitor to form a covalent bond (Moldoveanu, T.; Campbell, R. L.; Cuerrier, D.; Davies, P. L. J. Mol. Biol., 343, 1313-1326, 2004; Carragher, N. O., Curr. Pharm. Des., 12, 615-638, 2006). […] However, ZZ-LLY-CH2F can inhibit the off-target protein cathespin L with a rate constant k2 of 680,000 M^−1s^−1 (Li, Q.; Hanzlik, R. P.; Weaver, R. F.; Schoenbrunn, E., Biochemistry, 45:701-708, 2006). Thus, the ratio of inhibition rates k2 of the on-target m-calpain to an off-target protein can be around 28,900/680,000, or about 0.041. The ratio of inhibition rates k2 of the on-target m-calpain to an off-target protein can be greater than about 0.5, or greater than 0.1, or greater than 0.05, or greater than 0.01.

Assay [2] has as its system Akt phosphorylation / FAK cleavage in macrophages. Kind of assay: other m-calpain regulated pathways in macrophages (Akt, FAK). The assay is classed as cell-based.
Assay [3] addresses T1, m-calpain. Conditions: on-target; cited from earlier work.

On to `CC(C)C[C@H](NC(=O)OCc1ccccc1)C(=O)N[C@@H](CC(C)C)C(=O)N[C@@H](Cc1ccc(O)cc1)C(=O)CF` [zLLY-CH2F, Z-LLY-CH2F] (Cbz-Leu-Leu-Tyr-CH2F), for which the “ratio of inhibition rates k2 of on-target m-calpain to off-target protein” value on m-calpain [1] is “about 0.041”. Also, in assay [2], the FAK cleavage entry was “major effect” and the “phosphorylation of Akt” value is reported as “inhibited”. On m-calpain [3], the “k2 rate constant, irreversible inhibition of m-calpain” value is given as “about 28,900 M-1 s-1”.
